In patent US7781468B2, “Tyrosine derivatives substituted by N-arylacryloyl as agonists of hPPAR alpha and/or hPPAR gamma” (Beijing Molecule Science Technology Co., Ltd., priority 2004, dated 2010):

Legend:
Human PPARα = target: T1, Human PPARα (Homo sapiens, UniProt Q07869); assay: Activity assay on activating human PPARα (GAL4 chimeric receptor luciferase reporter, transient transfection in 293-T cells); format: cell-based; settings: for EC50: activation of PPARα; for Photon number (×10^4) / Increased multiple vs control: compound 10 μM; for Photon number (×10^4): luciferase measured 24 h after administration, control 2.1; for Increased multiple vs control: vs 0.2‰ DMSO blank control
T1 construct: expressed in transfected cells; host or cells: 293-T cells
T1 sequence (Q07869 239-466 limits assumed): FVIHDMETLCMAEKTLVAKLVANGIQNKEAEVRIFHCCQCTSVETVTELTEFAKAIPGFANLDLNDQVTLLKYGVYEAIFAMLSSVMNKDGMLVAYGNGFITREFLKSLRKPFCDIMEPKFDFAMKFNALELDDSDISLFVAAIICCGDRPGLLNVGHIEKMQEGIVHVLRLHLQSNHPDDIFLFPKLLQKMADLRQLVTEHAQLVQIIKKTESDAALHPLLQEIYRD
Procedure: (§1) The compounds were screened with respect to their functional effect of instantaneous transfection in 293-T cells, so that their capabilities of activating PPAR subtypes were determined. A chimeric receptor system as established in advance was used to compare the influence of receptor subtypes on the transcription activity of same target gene, with Rluc as an internal control to reduce the endogenous influence. Human PPARα and PPARγ ligand-binding domains were fused respectively with yeast transcription factor GAL4 DNA-binding domains, and then linked to expression vector pM of mammal, to thereby construct two plasmids pM-hPPARα/GAL4 and pM-PPARγ/GAL4. GAL4 DNA-binding area was linked to pB4-tk-luc, to thereby construct pB4-RES-tk-luc (a firefly luciferase reporter gene comprising GAL4 DNA-binding site). pRL-CMV-Rluc was used as an internal control to normalize transfection efficiency and endogenous influence.
(§2) 293-T cells were incubated in a 48-well plate at a cell density of 2-4×10^4/well, using a phenol red-free and antibiotic-free 1640 medium containing 10% defatted fetal calf serum (FCS). After culturing for 48 h, the medium was replaced with a phenol red-free and antibiotic-free 1640 medium containing 5% defatted FCS, and then three plasmids pM-hPPAR/GAL4, pB4-RES-tk-luc and pRL-CMV-Rluc pertaining to two subtypes were respectively co-transfected into the 293-T cells. The strength of luciferase was measured at the time of 24 h after administration, with 0.2‰ DMSO as a blank control.

Human PPARγ = target: T2, Human PPARγ (Homo sapiens, UniProt P37231); assay: Activity assay on activating human PPARγ (GAL4 chimeric receptor luciferase reporter, transient transfection in 293-T cells); format: cell-based; settings: for EC50: activation of PPARγ; for Photon number (×10^4) / Increased multiple vs control: compound 10 μM; for Photon number (×10^4): luciferase measured 24 h after administration, control 1.4; for Increased multiple vs control: vs 0.2‰ DMSO blank control
T2 construct: expressed in transfected cells; host or cells: 293-T cells
T2 sequence (P37231 238-503 limits assumed): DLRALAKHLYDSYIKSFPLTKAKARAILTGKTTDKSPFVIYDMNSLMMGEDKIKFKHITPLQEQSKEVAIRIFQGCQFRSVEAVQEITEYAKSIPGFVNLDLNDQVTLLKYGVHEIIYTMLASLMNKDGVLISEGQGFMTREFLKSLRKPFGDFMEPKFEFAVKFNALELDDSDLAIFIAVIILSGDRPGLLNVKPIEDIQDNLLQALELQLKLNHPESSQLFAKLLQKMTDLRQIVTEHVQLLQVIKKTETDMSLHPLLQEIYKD
Procedure: as §1, §2

| melting point [°C] | EC50 (Human PPARα) [nM] | Photon number (×10^4) (Human PPARα) | Increased multiple vs control (Human PPARα) | EC50 (Human PPARγ) [nM] | Photon number (×10^4) (Human PPARγ) | Increased multiple vs control (Human PPARγ) | SMILES |
| --- | --- | --- | --- | --- | --- | --- | --- |
| 188 to 190 | – | – | – | – | – | – | Cc1oc(-c2ccccc2)nc1CCOc1ccc(C[C@H](NC(=O)C=Cc2ccc(F)cc2)C(=O)O)cc1 [Example 3, (2S)-2-(3-(4-fluorophenyl)acryloylamino)-3-{4-[2-(5-methyl-2-phenyl-1,3-oxazol-4-yl)-ethoxy]-phenyl}-propanoic acid] |
| – | 4970 | 18.8 ×10^4 | 8.9 | 1160 | 27.6 ×10^4 | 19.7 | Cc1oc(-c2ccccc2)nc1CCOc1ccc(C[C@H](NC(=O)C=Cc2ccc(F)cc2F)C(=O)O)cc1 [Example 8, (2S)-2-[3-(2,4-difluorophenyl)-acryloylamino]-3-{4-[2-(5-methyl-2-phenyl-1,3-oxazol-4-yl)-ethoxy]-phenyl}-propanoic acid] |
| 221 to 223 | – | – | – | – | – | – | Cc1oc(-c2ccccc2)nc1CCOc1ccc(C[C@H](NC(=O)C=Cc2ccc(F)cc2F)C(=O)O)cc1Br [Example 12, (2S)-3-{3-bromo-4-[2-(5-methyl-2-phenyl-1,3-oxazol-4-yl)-ethoxy]-phenyl}-2-(3-(2,4-difluorophenyl)-acryloylamino)-propanoic acid] |
| – | – | – | – | – | 24.1 ×10^4 | 17.2 | Cc1ccc(C=CC(=O)N[C@@H](Cc2ccc(OCCc3nc(-c4ccccc4)oc3C)c(Br)c2)C(=O)O)cc1 [Example 10, (2S)-3-{3-bromo-4-[2-(5-methyl-2-phenyl-1,3-oxazol-4-yl)-ethoxy]-phenyl}-2-(3-p-tolylacryloylamino)-propanoic acid] |
| 199 to 201 | 770 | 9.8 ×10^4 | 4.7 | 74 | 23.7 ×10^4 | 16.9 | Cc1oc(-c2ccccc2)nc1CCOc1ccc(C[C@H](NC(=O)C=Cc2ccco2)C(=O)O)cc1 [Example 9, (2S)-2-(3-(furan-2-yl)-acryloylamino)-3-{4-[2-(5-methyl-2-phenyl-1,3-oxazol-4-yl)-ethoxy]-phenyl}-propanoic acid] |
| – | – | 8.6 ×10^4 | 4.1 | – | 29.0 ×10^4 | 20.7 | Cc1oc(-c2ccccc2)nc1CCOc1ccc(C[C@H](NC(=O)C=Cc2ccc(F)c(F)c2)C(=O)O)cc1 [Example 7, (2S)-2-[3-(3,4-difluorophenyl)acryloylamino]-3-{4-[2-(5-methyl-2-phenyl-1,3-oxazol-4-yl)-ethoxy]-phenyl}-propanoic acid] |
